# In patent US20050019825A9, “Common ligand mimics: pseudothiohydantoins” (priority 2002, published 2005):
# “And” between values parts separate entries of the source, which are not always exact repeats. Equal values may be shown once.
# Target: dihydrodipicolinate reductase (DHPR) (Escherichia coli, UniProt P04036)
# Experiment: Screening of bi-ligands for DHPR (Example 25), kinetic assay at 340 nm
# Type: biochemical
# Conditions: bi-ligands, Example 25 (FIG. 7); substrate and NADPH near Km
# Method: Screening of Biligands for Binding to Dihydrodipicolinate Reductase (DHPR)
# This example describes the screening of bi-ligands having common ligand mimics for binding activity to dihydrodipicolinate reductase (DHPR).
# Bi-ligands were produced by the methods of Examples 16 to 18. The bi-ligands were screened for binding to DHPR.
# Stock solutions of each of the reagents were prepared in the following concentrations. Dilutions of the stock solutions were prepared prior to running the assay in the concentrations indicated below. Dilution of DHPR was prepared in 10 mM HEPES at a pH of 7.4. DHPS was not diluted and was stored in eppindorf tubes.
# The L-ASA solution was prepared in the following manner. 180 μM stock solution of ASA was prepared. 100 μl of the ASA stock was mixed with 150 μl of concentrated NaHCO3 and 375 μl of […]. For use in the assay, 28.8 mM L-ASA equal 625 μl of the solution. The L-ASA stock solution was kept at a temperature of −20° C. After dilution, the pH of the 28.8 mM solution was checked and maintained between 1 and 2.
# First, the DHPS reaction was monitored at 340 nm prior to and after addition of the inhibitor to detect background reaction with the inhibitor. The solution for background detection was a 945 μl solution containing 0.1 HEPES (pH 7.8), 1 mM pyruvate, 6 μM NADPH, 40 μM L-ASA, and 7 μl of 1 mg/ml DHPS at 25° C. in the volumes provided above. The sample solution was then mixed and incubated for 10 minutes. Next, 500 nM solutions of the inhibitors and enough DMSO to provide a final DMSO concentration of 5% were added. The solution was mixed and incubated for an additional 6 minutes.
# In DHPR samples, 5 μl of the diluted DHPR enzyme were added. The sample was mixed for 20 seconds and then the reaction was run for 10 minutes. After a 50 second lag, the samples were read in a Cary spectrophotometer at 340 nm. Reading of the samples was continued until 300 seconds. Cuvette #1 contained the control reaction (no inhibitor), and cuvette #2 contained the positive control reaction in which Cibacron Blue at 2.58 μM was substituted for inhibitor to yield 70 to 80% inhibition. The substrate and NADPH or NAHD were kept near their Km values.
# dihydrodipicolinate reductase (DHPR), sequence (P04036 whole entry): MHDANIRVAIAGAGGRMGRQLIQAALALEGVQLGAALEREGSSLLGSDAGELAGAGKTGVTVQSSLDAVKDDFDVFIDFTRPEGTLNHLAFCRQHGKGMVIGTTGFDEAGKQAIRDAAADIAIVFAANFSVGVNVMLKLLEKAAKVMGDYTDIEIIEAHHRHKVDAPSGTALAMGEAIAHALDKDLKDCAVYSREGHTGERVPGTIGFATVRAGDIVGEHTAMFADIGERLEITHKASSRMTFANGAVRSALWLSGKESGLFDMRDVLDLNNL
row,Compound,IC50
1,"N=C1NC(=O)C(=Cc2ccc(C(=O)NCCSc3cc(C(=O)O)nc(C(=O)O)c3)cc2)S1 [compound 5c, 4-{2-[4-(2-imino-4-oxo-thiazolidin-5-ylidenemethyl)-benzoylamino]-ethylsulfanyl}-pyridine-2,6-dicarboxylic acid]",~33 µM
2,"N=C1NC(=O)C(=Cc2cccc(C(=O)NCCSc3cc(C(=O)O)nc(C(=O)O)c3)c2)S1 [compound 5b, 4-{2-[3-(2-imino-4-oxo-thiazolidin-5-ylidenemethyl)-benzoylamino]-ethylsulfanyl}-pyridine-2,6-dicarboxylic acid]",~1.02 µM
3,"N=C1NC(=O)C(=Cc2ccc(O)c(C(=O)NCCSc3cc(C(=O)O)nc(C(=O)O)c3)c2)S1 [compound 5a, 4-{2-[2-hydroxy-5-(2-imino-4-oxo-thiazolidin-5-ylidenemethyl)-benzoylamino]-ethylsulfanyl}-pyridine-2,6-dicarboxylic acid]",~8.2 µM and ~15.5 µM
